Test results taken from patent publication US20210308101A1, “METHODS OF TREATING FIBROMYALGIA” (Aptinyx Inc., priority 2019, published 2021).
Entries after “also recorded” stand apart in the source; their conditions may differ.

Columns and labels:
[1] = system: NMDAR; assay: NMDAR modulation (description); conditions: low concentrations of endogenous agonist (glycine or D-serine), in the presence of glutamate
[2] = system: posterior insula Glx; assay: 1H-MRS Glx levels, posterior insula (pre and post evoked cuff pain); format: in vivo, human; conditions: for pain-evoked increase in posterior insula Glx at the visit: p>0.60; for posterior insula pain-related Glx/tCr level increases: 11 patients; for posterior insula evoked pain Glx levels compared to the placebo visit: p<0.10, FIG. 15
Source text: As used herein, “^1H-MRS” is Magnetic Resonance Spectroscopy (1H-MRS) or Proton Magnetic Resonance Spectroscopy. Proton magnetic resonance spectroscopy is a noninvasive imaging technique that allows in vivo determination of biochemical parameters within brain tissue. Proton magnetic resonance spectroscopy data were used to collect brain neurotransmitter levels of Glu and combined glutamate+glutamine metabolites (Glx). This method provides metrics amenable to longitudinal studies such as those proposed here. High-resolution anatomical scans can isolate identical brain structures within individuals over time, thus minimizing error that otherwise would occur because of slight differences in voxel location from 1 evaluation to the next. Previous ^1H-MRS studies have utilized this approach to examine changes in the levels of CNS metabolites in test-retest studies of drug effects. This study expanded the investigation to a variety of regions throughout the brain including: • Right anterior insula • Right posterior insula (This region was acquired twice: once prior to and once following evoked cuff pain. All other voxels were acquired once.) • Perigenual/rostral anterior cingulate cortex (midline) • Dorsal/anterior cingulate cortex (midline) • Precuneus (midline) • Medial prefrontal cortex • Thalamus (optional if time permitted)
Proton magnetic resonance spectroscopy data were collected using the same scanners used for fMRI. Voxels of interest were placed in each of the aforementioned brain regions to obtain levels of Glu and Glx.
Raw data from each single-voxel spectroscopy sequence underwent manual post-processing using ^1H-MRS software (LCModel; Stephen Provencher, Oakville, Ontario, Canada). LCModel uses a linear combination of individual spectra obtained from pure molecular species to fit the experimental spectra. Glx values were calculated as an absolute concentration using the water signal for normalization or as a ratio to creatine. Correction for cerebral spinal fluid (CSF) volume, which can dilute ^1H-MRS-derived Glx values, was also performed. For this we used Voxel Based Morphometry, a toolbox that operates within SPM. Metabolite concentrations were excluded if the Cramér-Rao bounds were greater than 20%.
The analysis visit comparisons stated were analyzed using paired t-tests and/or nonparametric Wilcoxon signed-rank tests of Glx levels at each voxel independently in SPSS. The primary analyses were comparisons between posterior insula and anterior cingulate cortex Glx levels following placebo and NYX-2925 (either 20 or 200 mg) administration.

[3] = system: subjects with fibromyalgia; assay: QST: visual stimulation task; format: in vivo, human
Source text: To measure non-somatic sensitivity, a series of nonpainful, yet aversive, visual stimuli were presented to each subject. This 10-minute task consisted of 2 different visual stimuli presented in an alternating block design. The control stimulus was a solid color background, whereas experimental stimulus was a flashing annulus checkerboard. These 2 stimuli were interleaved into independent 8- to 30-second blocks throughout the duration of the task. Subjects viewed the stimuli on a calibrated liquid crystal display computer screen designed for high resolution image presentation. Stimuli were presented at varying brightness levels and/or color patterns, and each stimulus presentation was rated on scales of sensory intensity and unpleasantness. […] A redacted version of this task was administered during fMRI.
QST data were analyzed at the University of Michigan CPFRC. Dependent variables were the MAST derived outcomes (Pain50, pressure pain threshold, pain tolerance, and pain ratings at 2 kg/cm2), algometry-derived pressure pain thresholds (mean of three trials) at each anatomical site, average cuff intensity ratings (mean of ratings at all stimulus levels during the ascending or random sequences), and average visual task unpleasantness and brightness intensity ratings (mean of ratings at all stimulus levels). Practice data were not analyzed. Overall pain intensity and unpleasantness NRS scores as well as stimulus response curves for each test were assessed during post hoc analyses. Data points displaying measurement artefacts, including device malfunction or user error, were set to missing. Single subject QST variables were analyzed using paired t-tests and/or nonparametric Wilcoxon signed-rank tests in SPSS or R.

[4] = system: subjects with fibromyalgia; assay: Patient Global Impression of Change (PGI-C); format: in vivo, human
Source text: As used herein, the “PGI-C” is Patient Global Impression of Change. The PGI-C is a 7-point Likert scale that allows subjects to rate the change in the disease state from study initiation to specific time points during the study or at the end of the study. It provides the subject's impression of overall change.
The PGI-C data were collected and analyzed at visits Week 2, Week 4, Week 6, and Follow-up (Week 7). […] The actual values and changes from treatment periods at Week 4 and Week 6 were summarized using descriptive statistics. A frequency distribution was created for each analysis visit based on the collected categorical values. The analysis categorical values stated above were summarized by frequency distributions and p-values using McNemar's test.

[5] = system: dorsal anterior cingulate cortex Glx; assay: 1H-MRS Glx levels, dorsal anterior cingulate cortex; format: in vivo, human
Source text: As used herein, “^1H-MRS” is Magnetic Resonance Spectroscopy (1H-MRS) or Proton Magnetic Resonance Spectroscopy. Proton magnetic resonance spectroscopy is a noninvasive imaging technique that allows in vivo determination of biochemical parameters within brain tissue. Proton magnetic resonance spectroscopy data were used to collect brain neurotransmitter levels of Glu and combined glutamate+glutamine metabolites (Glx). This method provides metrics amenable to longitudinal studies such as those proposed here. High-resolution anatomical scans can isolate identical brain structures within individuals over time, thus minimizing error that otherwise would occur because of slight differences in voxel location from 1 evaluation to the next. Previous ^1H-MRS studies have utilized this approach to examine changes in the levels of CNS metabolites in test-retest studies of drug effects. […]
Raw data from each single-voxel spectroscopy sequence underwent manual post-processing using ^1H-MRS software (LCModel; Stephen Provencher, Oakville, Ontario, Canada). […] Glx values were calculated as an absolute concentration using the water signal for normalization or as a ratio to creatine. […]
The analysis visit comparisons stated were analyzed using paired t-tests and/or nonparametric Wilcoxon signed-rank tests of Glx levels at each voxel independently in SPSS. […]

## CC(C)C(=O)N1CCC[C@]12CN([C@H](C(N)=O)[C@@H](C)O)C2=O [NYX-2925, (2S, 3R)-3-hydroxy-2-((R)-5-isobutyryl-1-oxo-2,5-diazaspiro[3.4]octan-2-yl)butanamide]
[1]
  activity at the NMDAR: partially activates the NMDAR
[2]; FIG. 5: 20 mg vs placebo, 19 patients, p=0.032
  resting posterior insula Glx levels following evoked pain: significantly reduce resting posterior insula Glx levels
[2]; NYX-2925 20 mg visit
  pain-evoked increase in posterior insula Glx at the visit: not significant
[2]; NYX-2925 20 mg vs placebo, FIG. 3A, p<0.05
  posterior insula pain-related Glx/tCr level increases: reduction in pain related Glx/tCr level increases
[2]; NYX-2925 20 mg
  posterior insula evoked pain Glx levels compared to the placebo visit: trend for NYX-2925 20 mg and 200 mg to reduce evoked pain Glx levels
[2]; NYX-2925 200 mg compared to placebo, p<0.05
  posterior insula Glx levels post-pain (ratios to creatine only): significant decrease in Glx levels
[2]; NYX-2925 200 mg visit
  pain-evoked increase in posterior insula Glx at the visit: not significant
[2]; NYX-2925 200 mg vs placebo, FIG. 3B, p<0.05
  posterior insula pain-related Glx/tCr level increases: reduction in pain related Glx/tCr level increases
[2]; NYX-2925 200 mg
  posterior insula evoked pain Glx levels compared to the placebo visit: trend for NYX-2925 20 mg and 200 mg to reduce evoked pain Glx levels
[3]; NYX-2925 200 mg (Week 6)
  overall visual task unpleasantness: 42.31±29.20
  rating of unpleasantness evoked by the brightest visual stimulus: 59.97±35.46 NRS
[3]; Week 7 follow-up, p=0.037 vs 200 mg
  rating of unpleasantness evoked by the brightest visual stimulus: 53.13±36.88 NRS
[3]; Week 7 follow-up, p=0.040 vs 200 mg
  overall visual task unpleasantness: 33.85±28.07
[4]; post hoc, improved including minimally improved, 20 mg and 200 mg versus placebo
  Patient Global Impression of Change: a larger proportion of subjects had a reduction of severity
[4]; traditional definition of improved (very much improved, much improved)
  Patient Global Impression of Change: little, if any, change in severity
[5]; NYX-2925 20 mg vs placebo, p<0.05
  dACC resting Glx (concentrations and ratios to creatine): statistically significant reductions of Glx levels; also recorded: decreased resting Glx
[5]; NYX-2925 200 mg vs placebo
  dACC mean Glx levels: No significant decrease; also recorded: No effect
